# Experimental data published in patent US10604554B2, “Double-acylated GLP-1 derivatives” (Novo Nordisk A/S, priority 2012, dated 2020).
# Read-outs that look alike come from different tables or passages of the source.
# Target: T1, human GLP-1 receptor (Homo sapiens, UniProt P43220)
# T1 construct: expressed in transfected cells; host or cells: BHK cells, clone FCW467-12A/KZ10-1 (parent line BHKTS13), further transfected with CRE luciferase
# Experiment: GLP-1 receptor binding (SPA, displacement of 125I-GLP-1)
# How it was run: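 Tracer [125I]-GLP-1(7-36)NH2 at 0.06 nM final competed on hamster stably transfected cell membranes captured by WGA SPA beads; 120 min, 30 °C, scintillation count.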
# [1] = Receptor binding affinity IC50 (high HSA), 2.0% HSA (high albumin)
# [2] = Receptor binding affinity IC50 (low HSA), 0.001% HSA (low albumin)
# T1 sequence (P43220 24-463): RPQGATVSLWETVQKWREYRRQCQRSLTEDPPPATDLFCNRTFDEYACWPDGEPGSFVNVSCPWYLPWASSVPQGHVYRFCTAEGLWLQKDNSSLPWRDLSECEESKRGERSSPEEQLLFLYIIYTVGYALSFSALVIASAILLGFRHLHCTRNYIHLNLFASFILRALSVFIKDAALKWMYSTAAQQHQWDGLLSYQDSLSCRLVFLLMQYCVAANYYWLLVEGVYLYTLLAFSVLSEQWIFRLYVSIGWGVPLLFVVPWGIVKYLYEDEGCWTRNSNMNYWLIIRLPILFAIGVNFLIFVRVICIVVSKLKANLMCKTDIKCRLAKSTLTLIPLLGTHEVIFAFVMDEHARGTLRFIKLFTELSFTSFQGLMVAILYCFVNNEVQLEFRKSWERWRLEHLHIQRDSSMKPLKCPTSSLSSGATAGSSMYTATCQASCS
SMILES,IC50 [1],IC50 [2],"IC50 (0.001% HSA (low albumin), read-out: Receptor binding affinity IC50 (low HSA))","IC50 (high HSA) (Receptor binding affinity IC50 (high HSA), 2.0% HSA (high albumin), heading: Receptor binding affinity IC50)"
"CC[C@H](C)[C@H](NC(=O)[C@H](Cc1ccccc1)NC(=O)[C@H](CCC(=O)O)NC(=O)[C@H](CCCCNC(=O)[C@@H](N)CCCCNC(=O)[C@@H](N)CCCCNC(=O)CC[C@H](NC(=O)CCCCCCCNC(=O)CCCCCCCCCOc1ccc(C(=O)O)cc1)C(=O)O)NC(=O)[C@H](C)NC(=O)[C@H](C)NC(=O)[C@H](CCC(N)=O)NC(=O)CNC(=O)[C@H](CCC(=O)O)NC(=O)[C@H](CC(C)C)NC(=O)[C@H](Cc1ccc(O)cc1)NC(=O)[C@H](CO)NC(=O)[C@H](CO)NC(=O)[C@@H](NC(=O)[C@H](CC(=O)O)NC(=O)[C@H](CO)NC(=O)[C@@H](NC(=O)[C@H](Cc1ccccc1)NC(=O)[C@@H](NC(=O)CNC(=O)[C@H](CCC(=O)O)NC(=O)C(C)(C)NC(=O)[C@@H](N)Cc1c[nH]cn1)[C@@H](C)O)[C@@H](C)O)C(C)C)C(=O)N[C@@H](C)C(=O)N[C@@H](Cc1c[nH]c2ccccc12)C(=O)N[C@@H](CC(C)C)C(=O)N[C@H](C(=O)N[C@@H](CCCNC(=N)N)C(=O)NCC(=O)N[C@@H](CCCNC(=N)N)C(=O)N[C@@H](CCCCNC(=O)[C@@H](N)CCCCNC(=O)[C@@H](N)CCCCNC(=O)CC[C@H](NC(=O)CCCCCCCNC(=O)CCCCCCCCCOc1ccc(C(=O)O)cc1)C(=O)O)C(=O)O)C(C)C [Example 26, N^ε26-[(2S)-2-amino-6-[[(2S)-2-amino-6-[[(4S)-4-carboxy-4-[8-[10-(4-carboxyphenoxy)decanoylamino]octanoylamino]butanoyl]amino]hexanoyl]amino]hexanoyl], N^ε37-[(2S)-2-amino-6-[[(2S)-2-amino-6-[[(4S)-4-carboxy-4-[8-[10-(4-carboxyphenoxy)decanoylamino]octanoylamino]butanoyl]amino]hexanoyl]amino]hexanoyl]-[Aib^8,Arg^34,Lys^37]-GLP-1-(7-37)-peptide]",106 nM,0.38 nM,–,–
"CC[C@H](C)[C@H](NC(=O)[C@H](Cc1ccccc1)NC(=O)[C@H](CCC(=O)O)NC(=O)[C@H](CCCCNC(=O)[C@@H](N)CCCCNC(=O)[C@@H](N)CCCCNC(=O)CC[C@H](NC(=O)CCCCCCCCCCCOc1ccc(C(=O)O)cc1)C(=O)O)NC(=O)[C@H](C)NC(=O)[C@H](C)NC(=O)[C@H](CCC(N)=O)NC(=O)CNC(=O)[C@H](CCC(=O)O)NC(=O)[C@H](CC(C)C)NC(=O)[C@H](Cc1ccc(O)cc1)NC(=O)[C@H](CO)NC(=O)[C@H](CO)NC(=O)[C@@H](NC(=O)[C@H](CC(=O)O)NC(=O)[C@H](CO)NC(=O)[C@@H](NC(=O)[C@H](Cc1ccccc1)NC(=O)[C@@H](NC(=O)CNC(=O)[C@H](CCC(=O)O)NC(=O)C(C)(C)NC(=O)[C@@H](N)Cc1c[nH]cn1)[C@@H](C)O)[C@@H](C)O)C(C)C)C(=O)N[C@@H](C)C(=O)N[C@@H](Cc1c[nH]c2ccccc12)C(=O)N[C@@H](CC(C)C)C(=O)N[C@H](C(=O)N[C@@H](CCCNC(=N)N)C(=O)NCC(=O)N[C@@H](CCCNC(=N)N)C(=O)N[C@@H](CCCCNC(=O)[C@@H](N)CCCCNC(=O)[C@@H](N)CCCCNC(=O)CC[C@H](NC(=O)CCCCCCCCCCCOc1ccc(C(=O)O)cc1)C(=O)O)C(=O)O)C(C)C [Example 7, N^ε26-[(2S)-2-amino-6-[[(2S)-2-amino-6-[[(4S)-4-carboxy-4-[12-(4-carboxyphenoxy)dodecanoylamino]butanoyl]amino]hexanoyl]amino]hexanoyl], N^ε37-[(2S)-2-amino-6-[[(2S)-2-amino-6-[[(4S)-4-carboxy-4-[12-(4-carboxyphenoxy)dodecanoylamino]butanoyl]amino]hexanoyl]amino]hexanoyl]-[Aib^8,Arg^34,Lys^37]-GLP-1-(7-37)-peptide]",106 nM,0.13 nM,–,–
"CC[C@H](C)[C@H](NC(=O)[C@H](Cc1ccccc1)NC(=O)[C@H](CCC(=O)O)NC(=O)[C@H](CCCCNC(=O)[C@@H](N)CCCCNC(=O)[C@@H](N)CCCCNC(=O)CC[C@H](NC(=O)CCCCCCCCCCCCCCCCC(=O)O)C(=O)O)NC(=O)[C@H](C)NC(=O)[C@H](C)NC(=O)[C@H](CCC(N)=O)NC(=O)CNC(=O)[C@H](CCC(=O)O)NC(=O)[C@H](CC(C)C)NC(=O)[C@H](Cc1ccc(O)cc1)NC(=O)[C@H](CO)NC(=O)[C@H](CO)NC(=O)[C@@H](NC(=O)[C@H](CC(=O)O)NC(=O)[C@H](CO)NC(=O)[C@@H](NC(=O)[C@H](Cc1ccccc1)NC(=O)[C@@H](NC(=O)CNC(=O)[C@H](CCC(=O)O)NC(=O)C(C)(C)NC(=O)[C@@H](N)Cc1c[nH]cn1)[C@@H](C)O)[C@@H](C)O)C(C)C)C(=O)N[C@@H](C)C(=O)N[C@@H](Cc1c[nH]c2ccccc12)C(=O)N[C@@H](CC(C)C)C(=O)N[C@H](C(=O)N[C@@H](CCCNC(=N)N)C(=O)NCC(=O)N[C@@H](CCCNC(=N)N)C(=O)N[C@@H](CCCCNC(=O)[C@@H](N)CCCCNC(=O)[C@@H](N)CCCCNC(=O)CC[C@H](NC(=O)CCCCCCCCCCCCCCCCC(=O)O)C(=O)O)C(=O)O)C(C)C [Example 27, N^ε26-[(2S)-2-amino-6-[[(2S)-2-amino-6-[[(4S)-4-carboxy-4-(17-carboxyheptadecanoylamino)butanoyl]amino]hexanoyl]amino]hexanoyl], N^ε37-[(2S)-2-amino-6-[[(2S)-2-amino-6-[[(4S)-4-carboxy-4-(17-carboxyheptadecanoylamino)butanoyl]amino]hexanoyl]amino]hexanoyl]-[Aib^8,Arg^34,Lys^37]-GLP-1-(7-37)-peptide]",–,–,0.25 nM,689 nM
